Data set [1] deals with mouse model of ischemic stroke. As to the kind of experiment: Ex vivo MRI (T2WI, DTI) 7 days post-stroke. The settings on record: p>0.05. In kind it is in vivo. As for the experimental part:
For ex-vivo MRI, brains were maintained within the skull to avoid anatomical deformation. After overnight post-fixation in 4% PFA, heads were stored in PBS solution at 4° C. […] was performed at 500 MHz using a Bruker AV3HD 11.7 T/89 mm vertical bore small animal MRI scanner, equipped with a 25-mm quadrature RF coil and Paravision 6.0 (Bruker Biospin, Billerica, Mass.).
In a blinded manner, region of interests (ROIs) were manually drawn for the ipsilateral (IL) and contralateral (CL) cortex, striatum, corpus callosum (CC), and external capsule (EC). Values for the fractional anisotropy (FA), […] diffusion coefficient (ADC), and diffusivity were calculated for the entire volume of each ROI.
Referring to FIG. 15A, representative T2WI images and quantitative analyses of lesion volume and atrophy (shrinkage) of ex vivo brains from vehicle (Veh) control and ZT-1a-treated mice at 7 days post-MCAO are shown. […]
Referring to FIG. 15B, representative images of directionally encoded color (DEC) and fractional anisotropy (FA) maps are shown. […] Bar graphs display quantitation of mean values of FA, mean diffusivity (MD), axial diffusivity (AD) and radial diffusivity (RD) of white matter tissues (CC or EC) of ex vivo brain from vehicle control (Veh) and ZT-1a-treated mice at 7 days post-MCAO. […]

Data set [2] deals with Aurora A (Homo sapiens, UniProt O14965). As to the kind of experiment: Kinase panel (Dundee profiling). It is filed as biochemical. The settings on record: read-out: % residual kinase activity. The method, boiled down:
(§1)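 Testing used recombinant enzymes in a radioactive activity assay at two compound levels, 10 and 1 μM. Data give remaining activity as a percentage of vehicle (DMSO), averaged over n=3 with SEM.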

Data set [3] concerns the target BTK (Homo sapiens, UniProt Q06187). As to the kind of experiment: Kinase panel (Dundee profiling). It is filed as biochemical. The settings on record: read-out: % residual kinase activity. The gist of the method: as §1
Data set [4] deals with CAMK1 (Homo sapiens, UniProt Q14012). Kind of data set: Kinase panel (Dundee profiling). It is filed as biochemical. To be noted: read-out: % residual kinase activity. The method, boiled down: as §1
The target in data set [5] is CDK2-Cyclin A (Homo sapiens, UniProt P24941). As to the kind of experiment: Kinase panel (Dundee profiling). In kind it is biochemical. The settings on record: read-out: % residual kinase activity. The method, boiled down: as §1
The target in data set [6] is JAK2 (Homo sapiens, UniProt O60674). As to the kind of experiment: Kinase panel (Dundee profiling). To be noted: read-out: % residual kinase activity. It is filed as biochemical. The method, boiled down:
as §1

Data set [7] concerns the target MKK2 (Homo sapiens, UniProt P36507). As to the kind of experiment: Kinase panel (Dundee profiling). It is filed as biochemical. The settings on record: read-out: % residual kinase activity. The gist of the method:
as §1

The target of data set [8] is PAK2 (Homo sapiens, UniProt Q13177). Kind of data set: Kinase panel (Dundee profiling). It is filed as biochemical. The settings on record: read-out: % residual kinase activity. The method, boiled down:
as §1

In data set [9] the target is PIM2 (Homo sapiens, UniProt Q9P1W9). As to the kind of experiment: Kinase panel (Dundee profiling). It is filed as biochemical. The settings on record: read-out: % residual kinase activity. The gist of the method:
as §1

For data set [10], the target named is PKD1 (Homo sapiens, UniProt Q15139). Kind of data set: Kinase panel (Dundee profiling). In kind it is biochemical. To be noted: read-out: % residual kinase activity. The gist of the method: as §1
For data set [11], the target named is TIE2 (Homo sapiens, UniProt Q02763). Kind of data set: Kinase panel (Dundee profiling). The settings on record: read-out: % residual kinase activity. In kind it is biochemical. The method, boiled down:
as §1

The target of data set [12] is TTK (Homo sapiens, UniProt P33981). Kind of data set: Kinase panel (Dundee profiling). In kind it is biochemical. To be noted: read-out: % residual kinase activity. The method, boiled down: as §1
In data set [13] the target is p38b MAPK (Homo sapiens, UniProt Q15759). As to the kind of experiment: Kinase panel (Dundee profiling). It is filed as biochemical. To be noted: read-out: % residual kinase activity. The gist of the method: as §1
Data set [14] has as its system humans. To be noted: in vivo, 25 mg/kg; cited from earlier work.

Chain of BTK (Q06187 whole entry, species assumed): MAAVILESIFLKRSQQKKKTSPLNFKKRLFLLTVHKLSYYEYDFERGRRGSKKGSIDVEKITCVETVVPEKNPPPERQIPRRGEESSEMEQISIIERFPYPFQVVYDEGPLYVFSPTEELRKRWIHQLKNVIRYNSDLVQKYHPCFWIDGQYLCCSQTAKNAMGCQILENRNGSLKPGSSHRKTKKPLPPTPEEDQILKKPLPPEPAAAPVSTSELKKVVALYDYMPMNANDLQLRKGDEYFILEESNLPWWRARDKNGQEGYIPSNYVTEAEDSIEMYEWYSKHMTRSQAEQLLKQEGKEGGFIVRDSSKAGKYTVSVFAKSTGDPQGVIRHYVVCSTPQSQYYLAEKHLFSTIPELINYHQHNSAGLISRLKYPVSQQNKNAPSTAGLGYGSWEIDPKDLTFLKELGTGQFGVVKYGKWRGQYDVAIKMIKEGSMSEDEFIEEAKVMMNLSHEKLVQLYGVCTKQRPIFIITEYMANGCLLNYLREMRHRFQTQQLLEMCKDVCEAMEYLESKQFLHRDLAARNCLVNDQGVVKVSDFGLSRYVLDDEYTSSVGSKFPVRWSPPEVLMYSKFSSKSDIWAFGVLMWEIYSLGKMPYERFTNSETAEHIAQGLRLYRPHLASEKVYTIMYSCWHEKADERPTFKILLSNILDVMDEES
Chain of JAK2 (O60674 whole entry, species assumed): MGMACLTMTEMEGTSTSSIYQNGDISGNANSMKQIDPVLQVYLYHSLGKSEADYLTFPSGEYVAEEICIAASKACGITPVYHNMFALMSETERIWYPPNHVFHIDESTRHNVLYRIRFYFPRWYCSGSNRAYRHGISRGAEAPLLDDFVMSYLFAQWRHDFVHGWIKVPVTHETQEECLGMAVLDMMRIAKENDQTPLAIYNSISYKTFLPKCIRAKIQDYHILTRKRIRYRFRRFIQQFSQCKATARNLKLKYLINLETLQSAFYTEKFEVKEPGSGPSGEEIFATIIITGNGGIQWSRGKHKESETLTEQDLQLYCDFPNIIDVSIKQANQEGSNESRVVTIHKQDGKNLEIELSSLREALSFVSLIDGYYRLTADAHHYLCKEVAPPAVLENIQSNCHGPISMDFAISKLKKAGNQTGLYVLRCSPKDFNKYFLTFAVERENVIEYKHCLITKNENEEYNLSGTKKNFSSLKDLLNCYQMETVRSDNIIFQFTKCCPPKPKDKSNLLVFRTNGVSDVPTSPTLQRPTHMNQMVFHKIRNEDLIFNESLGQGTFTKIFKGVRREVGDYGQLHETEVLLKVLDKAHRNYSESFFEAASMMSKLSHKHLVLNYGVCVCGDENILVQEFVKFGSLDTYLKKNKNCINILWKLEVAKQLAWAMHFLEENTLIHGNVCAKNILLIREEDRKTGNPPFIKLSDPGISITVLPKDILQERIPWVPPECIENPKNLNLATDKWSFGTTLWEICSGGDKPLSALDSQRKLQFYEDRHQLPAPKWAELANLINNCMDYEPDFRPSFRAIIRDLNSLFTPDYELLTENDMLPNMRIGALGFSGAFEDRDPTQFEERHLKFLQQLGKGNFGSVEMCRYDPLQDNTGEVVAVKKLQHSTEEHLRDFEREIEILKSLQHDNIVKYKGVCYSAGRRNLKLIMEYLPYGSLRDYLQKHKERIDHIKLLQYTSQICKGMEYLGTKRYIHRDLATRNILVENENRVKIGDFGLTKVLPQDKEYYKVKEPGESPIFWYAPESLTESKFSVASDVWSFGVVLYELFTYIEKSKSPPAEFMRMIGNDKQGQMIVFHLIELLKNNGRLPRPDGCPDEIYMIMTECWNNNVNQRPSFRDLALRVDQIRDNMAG
Chain of MKK2 (P36507 whole entry, species assumed): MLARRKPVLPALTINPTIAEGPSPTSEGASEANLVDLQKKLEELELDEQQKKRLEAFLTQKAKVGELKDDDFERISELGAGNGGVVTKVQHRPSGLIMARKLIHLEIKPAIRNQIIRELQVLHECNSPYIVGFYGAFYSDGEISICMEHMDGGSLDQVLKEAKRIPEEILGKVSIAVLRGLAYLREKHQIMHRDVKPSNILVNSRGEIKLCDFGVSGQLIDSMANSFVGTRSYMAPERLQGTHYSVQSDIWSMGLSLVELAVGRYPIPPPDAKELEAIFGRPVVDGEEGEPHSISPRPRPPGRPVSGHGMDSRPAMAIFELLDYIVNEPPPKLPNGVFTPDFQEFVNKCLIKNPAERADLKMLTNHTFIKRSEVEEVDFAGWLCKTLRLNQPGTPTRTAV
Chain of TIE2 (Q02763 23-1124, species assumed): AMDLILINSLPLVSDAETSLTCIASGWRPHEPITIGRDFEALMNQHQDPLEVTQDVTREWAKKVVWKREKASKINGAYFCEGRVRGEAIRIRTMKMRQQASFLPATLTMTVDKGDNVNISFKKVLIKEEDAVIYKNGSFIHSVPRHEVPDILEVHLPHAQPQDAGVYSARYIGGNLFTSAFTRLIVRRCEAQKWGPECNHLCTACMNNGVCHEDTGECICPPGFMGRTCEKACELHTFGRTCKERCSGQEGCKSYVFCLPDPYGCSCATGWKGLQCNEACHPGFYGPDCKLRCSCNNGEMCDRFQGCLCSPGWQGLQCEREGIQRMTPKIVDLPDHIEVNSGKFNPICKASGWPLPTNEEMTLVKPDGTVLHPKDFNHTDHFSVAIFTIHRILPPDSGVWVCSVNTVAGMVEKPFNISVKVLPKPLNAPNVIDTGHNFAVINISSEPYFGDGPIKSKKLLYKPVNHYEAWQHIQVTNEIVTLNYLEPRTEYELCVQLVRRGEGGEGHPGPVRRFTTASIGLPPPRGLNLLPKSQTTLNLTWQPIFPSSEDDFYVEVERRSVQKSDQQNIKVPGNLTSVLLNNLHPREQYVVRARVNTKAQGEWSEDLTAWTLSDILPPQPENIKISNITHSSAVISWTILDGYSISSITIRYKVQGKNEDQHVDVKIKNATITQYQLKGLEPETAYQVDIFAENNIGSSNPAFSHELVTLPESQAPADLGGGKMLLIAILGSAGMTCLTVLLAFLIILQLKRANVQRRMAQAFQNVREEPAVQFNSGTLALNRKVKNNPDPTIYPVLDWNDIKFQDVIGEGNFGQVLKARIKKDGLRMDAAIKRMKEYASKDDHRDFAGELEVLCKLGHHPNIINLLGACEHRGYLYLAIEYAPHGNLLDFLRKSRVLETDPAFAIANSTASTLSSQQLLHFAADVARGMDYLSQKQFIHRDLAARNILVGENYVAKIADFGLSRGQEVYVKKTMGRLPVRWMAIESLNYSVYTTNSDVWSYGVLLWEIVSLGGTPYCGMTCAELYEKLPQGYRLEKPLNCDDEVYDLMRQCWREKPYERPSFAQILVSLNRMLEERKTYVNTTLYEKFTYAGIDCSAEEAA
Chain of PIM2 (Q9P1W9 whole entry, species assumed): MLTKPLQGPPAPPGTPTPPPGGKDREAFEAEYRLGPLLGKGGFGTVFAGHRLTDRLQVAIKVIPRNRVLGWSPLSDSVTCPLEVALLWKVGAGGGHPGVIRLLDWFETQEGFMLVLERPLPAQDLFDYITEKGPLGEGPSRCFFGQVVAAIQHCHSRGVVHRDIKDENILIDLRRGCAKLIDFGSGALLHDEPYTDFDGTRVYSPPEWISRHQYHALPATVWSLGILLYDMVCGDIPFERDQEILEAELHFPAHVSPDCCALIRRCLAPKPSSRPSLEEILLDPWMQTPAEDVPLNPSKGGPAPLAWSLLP
Chain of PAK2 (Q13177 whole entry, species assumed): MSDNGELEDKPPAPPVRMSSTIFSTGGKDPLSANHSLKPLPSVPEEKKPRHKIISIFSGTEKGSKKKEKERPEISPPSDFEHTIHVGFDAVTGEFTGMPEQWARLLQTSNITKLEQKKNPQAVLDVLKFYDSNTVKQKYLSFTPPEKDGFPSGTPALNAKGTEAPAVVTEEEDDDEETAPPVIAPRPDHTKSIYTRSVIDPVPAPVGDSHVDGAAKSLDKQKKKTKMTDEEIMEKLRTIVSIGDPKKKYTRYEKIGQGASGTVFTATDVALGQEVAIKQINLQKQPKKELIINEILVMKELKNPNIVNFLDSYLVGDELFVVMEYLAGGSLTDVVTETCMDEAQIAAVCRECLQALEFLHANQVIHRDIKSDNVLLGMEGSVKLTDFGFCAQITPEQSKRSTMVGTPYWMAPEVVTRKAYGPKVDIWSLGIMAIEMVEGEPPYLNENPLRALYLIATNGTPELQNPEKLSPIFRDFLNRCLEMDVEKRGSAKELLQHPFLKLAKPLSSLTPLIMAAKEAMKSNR
Chain of TTK (P33981 whole entry, species assumed): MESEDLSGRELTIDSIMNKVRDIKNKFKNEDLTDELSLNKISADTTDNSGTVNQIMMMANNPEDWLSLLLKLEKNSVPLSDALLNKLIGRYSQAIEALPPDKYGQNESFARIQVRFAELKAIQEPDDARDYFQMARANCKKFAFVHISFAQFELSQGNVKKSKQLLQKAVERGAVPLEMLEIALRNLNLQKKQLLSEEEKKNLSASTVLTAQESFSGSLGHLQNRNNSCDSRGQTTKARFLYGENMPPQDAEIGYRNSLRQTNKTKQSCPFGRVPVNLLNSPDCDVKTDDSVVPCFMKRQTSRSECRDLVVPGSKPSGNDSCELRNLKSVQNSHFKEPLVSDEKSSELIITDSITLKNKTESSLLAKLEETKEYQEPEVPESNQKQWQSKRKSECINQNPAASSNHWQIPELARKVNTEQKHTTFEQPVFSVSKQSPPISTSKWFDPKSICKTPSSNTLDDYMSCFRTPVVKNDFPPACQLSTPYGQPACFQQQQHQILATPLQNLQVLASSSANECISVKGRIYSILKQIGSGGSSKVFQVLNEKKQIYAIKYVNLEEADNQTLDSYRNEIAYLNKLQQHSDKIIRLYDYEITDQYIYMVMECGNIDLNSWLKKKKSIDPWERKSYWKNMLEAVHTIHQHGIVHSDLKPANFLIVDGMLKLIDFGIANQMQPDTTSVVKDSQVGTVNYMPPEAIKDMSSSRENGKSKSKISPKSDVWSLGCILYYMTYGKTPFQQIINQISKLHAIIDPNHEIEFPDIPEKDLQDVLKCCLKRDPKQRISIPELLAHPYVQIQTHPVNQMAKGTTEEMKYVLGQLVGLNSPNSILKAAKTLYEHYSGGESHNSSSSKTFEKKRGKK

Take `Cc1cc(C(C#N)c2ccc(Cl)cc2)c(Cl)cc1NC(=O)c1cc(Cl)ccc1O` (centres unmarked) [ZT-1a, 5-chloro-N-(5-chloro-4-((4-chlorophenyl)(cyano)methyl)-2-methylphenyl)-2-hydroxy-benzamide]: the “EC tract FA values in the IL hemisphere” value in data set [1] was “did not change”. The remaining activity at 1 µM in data set [2] (1 μM) stood at 73 ± 19%; in [3] (1 μM), 113 ± 1%; in data set [4] (1 μM), 60 ± 5%; in data set [5] (1 μM), 128 ± 12%; in [6] (1 μM), 125 ± 6%; in [7] (1 μM), 126 ± 2%. Further, the remaining activity at 1 µM in [8] (1 μM) was determined as 110 ± 4%; in data set [9] (1 μM) it was 93 ± 5%; in data set [10] (1 μM), 89%; in [11] (1 μM), 139 ± 74%; in data set [12] (1 μM), 104 ± 2%; in data set [13] (1 μM), 124 ± 1%. Besides, the remaining activity at 10 µM in data set [2] (10 μM) was 65 ± 1%; in [3] (10 μM), 73 ± 2%; in data set [4] (10 μM), 71 ± 31%; in [5] (10 μM) it was 125 ± 6%; in [6] (10 μM) it was 123 ± 8%; in data set [7] (10 μM), 81 ± 27%. The remaining activity at 10 µM in data set [8] (10 μM) came to 93 ± 8%; in data set [9] (10 μM), 93 ± 3%; in [10] (10 μM) it was 79 ± 10%; in data set [11] (10 μM) it was 73 ± 11%; in data set [12] (10 μM) it was 91 ± 5%; in [13] (10 μM) it was 124%.
`Cc1cc(C(C#N)c2ccc(Cl)cc2)c(Cl)cc1NC(=O)c1cc(I)cc(I)c1O` (centres unmarked) [Closantel]: the “adverse effects in humans” value in data set [14] is “weakness, visual impairment and blindness”.

(Values after patent publication US11414379B2, “SPAK kinase inhibitors as neuroprotective agents” (United States Government as represented by the Department …, priority 2018, dated 2022).)
